The record followed here is patent US20150203517A1, “Prodrugs of Compounds that Enhance Antifungal Activity and Compositions of Said Prodrugs” (priority 2014, published 2015).

Series [1] in a line: Conversion of prodrugs to compound 1 in mouse plasma. In kind it is in vitro ADME. The note with it: mouse plasma (Na-Heparin treated); for Prodrug loss at 0.5 hr / Prodrug loss at 1 hr: 37° C.; for Prodrug solubility in plasma: equivalent to 1.00 mg/mL of compound 1, * = Plasma quickly became cloudy. As for the experimental part:
(§1) Step 1. Sample preparation. A quantity of blank mouse plasma (Na-Heparin treated) was incubated at 37° C. for 30 minutes. An amount of the compound sample was precisely weighed to correspond to around 5.00 mg of the hydroxamate of compound 1, taking into account the mass of the leaving group and the salt factor if applicable. The sample was placed in a 16×125 mm glass screw cap tube. The incubated blank mouse plasma was added so that the final concentration of hydroxamate 1 was 1.00 mg/mL. The sample was sonicated for 30 seconds, shaken for 30 seconds on a Vortex apparatus, and run through the HPLC procedure of Step 2 to get a time point zero value. The samples were stored in an incubator at 37° C., and the HPLC analysis of Step 2 was repeated at 30 minutes and 1 hour
(§2) Step 2. Protein precipitation and HPLC analysis of plasma. A 50 μL aliquot of plasma was taken in a 1.5 mL Eppendorf vial, to which was added 200 μL of MeCN. The vial was capped and shaken on a Vortex apparatus for 30 seconds, then centrifuged at 13000 rpm (15700 rcf) for five minutes. When centrifuging was complete, 100 μL of the supernatant was placed in an injection vial containing an insert, to which was added 100 μL of 0.1% formic acid in water. The vial was capped and shaken on a Vortex apparatus for 30 seconds, and the contents were injected into the HPLC-UV instrument, and a comparison was made of the retention time, peak areas and level of degradation (if any) using the GDADI50 method.

Series [2] is described as follows: Saline solubility at 1.00 mg/mL and 0.50 mg/mL (with pH by indicator paper). In kind it is physicochemical. Conditions: for pH at 1.00 mg/mL of MGCD290 in saline: final concentration of hydroxamate 1 1.00 mg/mL, pH indicator paper; for solubility at 1 h: saline or isotonic, thermodynamic from solid, 1.00 mg/mL as hydroxamate 1, shaken 1 hour, centrifuged, soluble = no precipitate formed, read-out: Soluble at 1.00 mg/mL of MGCD290 (Y/N). The gist of the method: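 Prodrug was weighed to give 1.00 mg/mL hydroxamate equivalent in saline, vortexed 1 h and centrifuged, and diluted to 0.50 mg/mL if it precipitated. pH was checked by indicator paper. Stability in solution diluted 1:1 with saline was followed by HPLC-UV at 0, 6 and 24 h.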

A short description of series [3]: Saline solubility at 10.00 mg/mL, 5.00 mg/mL and 2.50 mg/mL (with pH by pH meter). In kind it is physicochemical. The note with it: saline or isotonic, thermodynamic from solid, concentration expressed as equivalent of Cpd 1, highest tested concentration soluble, read-out: Highest prodrug solubility in saline (equivalent of Cpd 1). As for the experimental part:
The following procedures were used
Step 1. Sample preparation. An amount of the compound sample was precisely weighed to correspond to around 10 mg of the hydroxamate of compound 1, taking into account the mass of the leaving group and the salt factor if applicable. The sample was placed in a 16×125 mm glass screw cap tube. Saline was added so that the final concentration of hydroxamate 1 was 10.00 mg/mL. The tube was shaken for 1 hour on a Vortex apparatus then centrifuged at 3000 rpm (1800 rcf) for 5 minutes. If the compound example was soluble (no precipitate formed) then the pH was measured with a pH meter, and the procedure continued to step 2. If a precipitate formed then the sample was diluted with saline so that the final concentration of the hydroxamate of compound 1 became 5.00 mg/mL, and the shaking and centrifuging steps were repeated. If the compound example was soluble (no precipitate formed) then the pH was measured with a pH meter, and the procedure continued to step 2. If a precipitate formed then the sample was diluted with saline so that the final concentration of the hydroxamate of compound 1 became 2.50 mg/mL, and the shaking and centrifuging steps were repeated. If the compound example was soluble (no precipitate formed) then the pH was measured with a pH meter, and the procedure continued to step 2

A short description of series [4]: Conversion of prodrugs to compound 1 in human plasma. In kind it is in vitro ADME. Conditions: human plasma (Na-Heparin treated), 37° C. As for the experimental part: as §1, with “blank human” for “blank mouse”, “repeated in” for “repeated at”, “1 hour.” for “1 hour”
as §2
Step 3. Reference sample preparation. An amount of the compound sample was precisely weighed to correspond to around 5.00 mg of the hydroxamate of compound 1, taking into account the mass of the leaving group and the salt factor if applicable. The sample was placed in a 16×125 mm glass screw cap tube. A quantity of MeCN/H2O 50/50 v/v was added so that the final concentration of hydroxamate 1 was 1.00 mg/mL. An injection vial was filled with 100 μL of this sample stock solution and 900 μL of a solution of 40/60 MeCN/0.1% formic acid in water. The vial was capped and the contents were injected into the HPLC-UV instrument, and a comparison was made of the retention time, peak areas and level of degradation (if any) using the GDADI50 method.

Each structure is given as a SMILES string. Structures can show the parent of a compound that is named as a salt.

On to `COCCOCCOCC(=O)NCCCC[C@H](NC(=O)COCCOCCOC)C(=O)NCCCC(=O)ONC(=O)Cc1ccc(CCCCc2ccccc2)cc1` [Compound 99, (S)—N,N-(6-Oxo-6-(4-oxo-4-(2-(4-(4-phenylbutyl)phenyl)acetamidooxy)butylamino)hexane-1,5-diyl)bis(2-(2-(2-methoxyethoxyl)ethoxy)acetamide)], for which, in series [1], the “Prodrug loss at 0.5 hr” value was 100%, the “Prodrug loss at 1 hr” value was determined as 100% and the “Prodrug solubility in plasma” value is recorded as “Yes*”. Moreover, in series [2], the “pH at 1.00 mg/mL of MGCD290 in saline” value is recorded as 4.5-5 and the solubility at 1 h is more than 1000 µg/mL. For the same molecule, the solubility at 1 h in series [3] was 2500 µg/mL. In series [4], the “Prodrug loss at 0.5 hr” value is listed as 22.7% and the “Prodrug loss at 1 hr” value was 89.1%.
As to `COCCOCC(=O)NCCCC[C@H](NC(=O)COCCOC)C(=O)NCCCC(=O)ONC(=O)Cc1ccc(CCCCc2ccccc2)cc1` [Compound 100], in series [1], the “Prodrug loss at 0.5 hr” value is on record as 100%, the “Prodrug loss at 1 hr” value was 100% and the “Prodrug solubility in plasma” value is reported as “Yes*”. Further, in series [2], the “pH at 1.00 mg/mL of MGCD290 in saline” value is given as 4.5-5 and the solubility at 1 h is more than 1000 µg/mL. Also, the solubility at 1 h in series [3] was 1000 µg/mL. Besides, in series [4], the “Prodrug loss at 0.5 hr” value is 69.4% and the “Prodrug loss at 1 hr” value was 93.4%.
With `Cl.O=C(Cc1ccc(CCCCc2ccccc2)cc1)NOC(=O)CCC1CCNCC1` [Compound 110, 2-(4-(4-Phenylbutyl)phenyl)-N-(3-(piperidin-4-yl)propanoyloxy) acetamide hydrochloride], in series [1], the “Prodrug loss at 0.5 hr” value came to 100%, the “Prodrug loss at 1 hr” value is listed as 100% and the “Prodrug solubility in plasma” value is given as “Yes*”. In series [2], the “pH at 1.00 mg/mL of MGCD290 in saline” value is recorded as 4.5-5 and the solubility at 1 h is more than 1000 µg/mL. Besides, in series [3], the solubility at 1 h is 10000 µg/mL. Besides, in series [4], the “Prodrug loss at 0.5 hr” value came out at 85.5% and the “Prodrug loss at 1 hr” value stood at 99.6%.
In the case of `COCCOCCOCCOCCOCCOCC(=O)N1CCC(CCC(=O)ONC(=O)Cc2ccc(CCCCc3ccccc3)cc2)CC1` [Compound 111, N-(3-(1-2,5,8,11,14,17-Hexaoxanonadecanepiperidin-4-yl)propanoyloxy)-2-(4-(4-phenylbutyl)phenyl)acetamide], in series [1], the “Prodrug loss at 0.5 hr” value is 98%, the “Prodrug loss at 1 hr” value is 99% and the “Prodrug solubility in plasma” value is recorded as “Yes*”. Moreover, in series [2], the “pH at 1.00 mg/mL of MGCD290 in saline” value was 4.5-5 and the solubility at 1 h was more than 1000 µg/mL. Also, the solubility at 1 h in series [3] came out at 10000 µg/mL. In addition, in series [4], the “Prodrug loss at 0.5 hr” value turned out to be 65.5% and the “Prodrug loss at 1 hr” value is listed as 90.5%.
Take `COCCOCCOCCOCCOCCOCC(=O)N1CCC(CCCC(=O)ONC(=O)Cc2ccc(CCCCc3ccccc3)cc2)CC1` [Compound 122]: in series [1], the “Prodrug loss at 0.5 hr” value was 100%, the “Prodrug loss at 1 hr” value came out at 100% and the “Prodrug solubility in plasma” value was “Yes**”. Further, in series [2], the “pH at 1.00 mg/mL of MGCD290 in saline” value is recorded as 5.-5.5 and the solubility at 1 h was more than 1000 µg/mL. Also, in series [3], the solubility at 1 h stood at 10000 µg/mL. Also, in series [4], the “Prodrug loss at 0.5 hr” value is reported as 66.6% and the “Prodrug loss at 1 hr” value came out at 91.9%.
Take `NCCNCC(=O)NCCC(=O)ONC(=O)Cc1ccc(CCCCc2ccccc2)cc1` [Compound 135, 2-(2-aminoethylamino)-N-(3-oxo-3-(2-(4-(4-phenylbutyl)phenyl)acetamidooxy)propyl) acetamide dihydrochloride]: in series [1], the “Prodrug loss at 0.5 hr” value was determined as 100%, the “Prodrug loss at 1 hr” value came to 100% and the “Prodrug solubility in plasma” value is “Yes*”. In series [2], the “pH at 1.00 mg/mL of MGCD290 in saline” value was 4.5-5 and the solubility at 1 h was more than 1000 µg/mL. Moreover, the solubility at 1 h in series [3] came out at 10000 µg/mL. Further, in series [4], the “Prodrug loss at 0.5 hr” value worked out at 98.7% and the “Prodrug loss at 1 hr” value came to 99.8%.
